Data published in patent US12545699B2, “Bivalent LECA inhibitors targeting biofilm formation of Pseudomonas aeruginosa” (HELMHOLTZ-ZENTRUM FÜR INFEKTIONSFORSCHUNG GMBH, priority 2019, dated 2026).

Experiments:
LecA [1] = target: T1, LecA (Pseudomonas aeruginosa, UniProt Q05097); assay: competitive binding assay based on fluorescence polarisation (FP); conditions: FP IC50, Table 1, 20 μM LecA
T1 construct: made in house
Protocol: Binding of ligands to LecA was evaluated in competitive assay based on fluorescence polarisation.

LecA [2] = target: T1, LecA; assay: surface plasmon resonance (SPR) direct binding to immobilised LecA
Protocol: All experiments were performed on a BIACORE X100 instrument (GE Healthcare) at 25° C. and a flow rate of 10 μL min^−1. […] LecA was dissolved in 10 mM sodium acetate pH 4.5 (100 μg mL^−1) and injected over the activated chip surface on channel 2 (contact time of 540 s) until the response of ˜4000 RU was reached. Excess free amine groups were capped with an injection of 1 M ethanolamine (contact time 540 s). Bivalent compounds were dissolved in 100% DMSO and subsequently diluted to required concentrations in a running buffer (10 mM phosphate buffer pH 7.4, 2.7 mM KCl, 137 mM NaCl, 100 μM CaCl2, 0.05% Tween 20, 5% DMSO). The bivalent analytes were subjected to single-cycle kinetics analyses (contact time of 120 s and dissociation time of 120 s) consisting of injections of the analytes at 0, 10, 50, 100, and 200 nM over the immobilised-LecA. The chip surface was regenerated by 5× injections of 100 μM 4-nitrophenyl-β-D-galactose (contact time of 120 s). KD determination was performed using BIACORE X100 evaluation software (version 2.0) by applying 1:1 binding model to fit the experimental data. • [1] H. E. Gottlieb, V. Kotlyar, A. Nudelman, J. Org. Chem. 1997, 62, 7512-7515. • [2] M. Seligman, J. Biol. Chem. 1952, 195, 239-249. • [3] S. T. Xue, W. Y. He, L. L. Ma, H. Q. Wang, B. Wang, G. H. Zheng, X. Y. Ji, T. Zhang, Y. H. Li, J. D. Jiang, et al., Molecules 2013, 18, 3789-3805. • [4] Y. Li, H. Mo, G. Lian, B. Yu, Carbohydr. Res. 2012, 363, 14-22. • [5] F. Yang, F. Xie, Y. Zhang, Y. Xia, W. Liu, F. Jiang, C. Lam, Y. Qiao, D. Xie, J. Li, et al., Bioorganic Med. Chem. Lett. 2017, 27, 2166-2170. Synthesis Schemes and Results of Biophysical Assays

LecA [3] = target: T1, LecA; assay: isothermal titration microcalorimetry (ITC); type: binding; conditions: ITC Kd, Table 1; TBS/Ca2+ buffer, 25° C.
Protocol: Expression and purification of LecA as well as competitive binding by fluorescence polarization was performed as described by Joachim et al. (Org. Biomol. Chem. 2016). Microcalorimetry was performed using an ITC200 (GE Healthcare) at highest possible LecA concentration (typically 200-400 μM) in the cell and titration of ligand in the same buffer at 25° C.

T1 sequence (Q05097 whole entry): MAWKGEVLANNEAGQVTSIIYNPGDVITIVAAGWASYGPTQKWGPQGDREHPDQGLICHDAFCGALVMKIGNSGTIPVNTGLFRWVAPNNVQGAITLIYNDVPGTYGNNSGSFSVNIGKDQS

Structure (SMILES)	IC50 (LecA [1]; 10 nM reporter ligand 8, TBS/Ca2+ buffer with 4% DMSO (*)) [µM]	Kd (LecA [2]) [µM]	Kd (LecA [3]) [µM]	IC50 (LecA [1]; 10 nM reporter ligand 8, TBS/Ca2+ buffer with 25% DMSO (**)) [µM]
COc1ccc(C=NNC(=O)c2ccc(OC3OC(CO)C(O)C(O)C3O)cc2)cc1 (stereo not drawn) [Compound F6p]	23.1	4.8 ± 2.1	6.11 ± 0.48	
COc1ccc(C=NNC(=O)c2cccc(OC3OC(CO)C(O)C(O)C3O)c2)cc1 (stereo not drawn) [Compound F6m]		4.9 ± 0.1	2.4 ± 1.33	21.6 ± 4.5
